ChEMBL document CHEMBL2176988 (J Med Chem, 2012)
Activity calls are given as the source filed them. The calls are words filed in the database; no cut-off is given here.

Tests used:
Rattus norvegicus [1] = assay: Procognitive activity in Sprague-Dawley rat assessed as recognition index at 0.1 mg/kg, po administered QD for 3 days 30 mins prior to testing by novel object recognition test (reference value: 50%); format: functional
Rattus norvegicus [2] = assay: Procognitive activity in Sprague-Dawley rat assessed as increase in working memory at 0.1 to 0.3 mg/kg, po administered QD for 3 days 30 mins prior to testing by novel object recognition test; format: functional, organism-based
Cytochrome P450 2D6 = Cytochrome P450 2D6 (Homo sapiens, UniProt P10635); assay: Inhibition of CYP2D6; format: ADME
hERG (KCNH2) = hERG (KCNH2) (Homo sapiens, UniProt Q12809); assay: Inhibition of human ERG at 10 uM
Sequence of hERG (KCNH2) (Q12809 whole entry): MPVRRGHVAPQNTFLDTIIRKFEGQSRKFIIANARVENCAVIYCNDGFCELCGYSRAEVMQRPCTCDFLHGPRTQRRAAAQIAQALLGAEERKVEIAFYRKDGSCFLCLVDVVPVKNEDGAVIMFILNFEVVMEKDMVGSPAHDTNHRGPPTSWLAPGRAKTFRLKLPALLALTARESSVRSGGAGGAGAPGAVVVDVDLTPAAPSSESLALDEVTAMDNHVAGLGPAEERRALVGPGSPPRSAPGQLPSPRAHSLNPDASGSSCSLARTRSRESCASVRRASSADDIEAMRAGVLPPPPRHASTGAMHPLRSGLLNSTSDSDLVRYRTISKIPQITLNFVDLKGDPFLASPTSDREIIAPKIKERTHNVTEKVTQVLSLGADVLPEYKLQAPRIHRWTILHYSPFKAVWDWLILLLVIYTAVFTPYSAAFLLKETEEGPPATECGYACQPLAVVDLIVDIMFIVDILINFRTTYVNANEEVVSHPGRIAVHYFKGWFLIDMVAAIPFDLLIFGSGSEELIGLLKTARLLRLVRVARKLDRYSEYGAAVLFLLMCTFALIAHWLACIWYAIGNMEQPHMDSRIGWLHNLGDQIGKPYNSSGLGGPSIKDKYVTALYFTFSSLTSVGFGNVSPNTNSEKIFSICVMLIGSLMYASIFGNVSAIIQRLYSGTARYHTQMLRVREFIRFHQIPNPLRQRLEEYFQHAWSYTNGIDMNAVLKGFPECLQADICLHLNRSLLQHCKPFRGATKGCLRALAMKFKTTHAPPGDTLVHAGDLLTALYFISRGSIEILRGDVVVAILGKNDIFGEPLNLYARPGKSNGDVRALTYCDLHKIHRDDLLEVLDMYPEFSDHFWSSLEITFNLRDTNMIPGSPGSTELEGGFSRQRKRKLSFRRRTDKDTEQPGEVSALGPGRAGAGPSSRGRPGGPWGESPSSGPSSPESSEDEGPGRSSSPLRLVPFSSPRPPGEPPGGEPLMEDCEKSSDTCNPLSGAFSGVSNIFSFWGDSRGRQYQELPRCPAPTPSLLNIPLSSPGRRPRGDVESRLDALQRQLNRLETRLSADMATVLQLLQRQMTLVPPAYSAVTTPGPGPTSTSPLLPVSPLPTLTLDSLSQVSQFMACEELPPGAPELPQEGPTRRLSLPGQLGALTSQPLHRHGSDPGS

[3] = target: T1, 5-hydroxytryptamine receptor 3A (Homo sapiens, UniProt P46098); assay: Inhibition of human 5HT3 receptor
T1 sequence (P46098 whole entry): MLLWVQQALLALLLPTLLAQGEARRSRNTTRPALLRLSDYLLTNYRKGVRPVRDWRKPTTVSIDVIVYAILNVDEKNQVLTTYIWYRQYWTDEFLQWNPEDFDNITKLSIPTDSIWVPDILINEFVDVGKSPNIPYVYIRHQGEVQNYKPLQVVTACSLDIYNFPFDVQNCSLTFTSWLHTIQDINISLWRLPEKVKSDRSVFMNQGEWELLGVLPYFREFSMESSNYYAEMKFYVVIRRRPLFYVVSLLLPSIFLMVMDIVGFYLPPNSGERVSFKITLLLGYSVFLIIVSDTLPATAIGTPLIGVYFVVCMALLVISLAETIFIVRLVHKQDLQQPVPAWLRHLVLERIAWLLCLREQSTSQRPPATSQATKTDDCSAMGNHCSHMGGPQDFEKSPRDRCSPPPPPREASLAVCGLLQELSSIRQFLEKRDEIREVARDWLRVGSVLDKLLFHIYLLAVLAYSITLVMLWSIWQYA

[4] = target: T2, 5-hydroxytryptamine receptor 3A (Homo sapiens) (UniProt P46098); assay: Inhibition of human 5HT3 receptor at 10 uM
T2 sequence (whole entry): T1 sequence (P46098 whole entry)

[5] = target: T3, 5-hydroxytryptamine receptor 3A (Mus musculus) (UniProt P23979); assay: Inhibition of mouse 5HT3 receptor at 10 uM
T3 sequence (whole entry): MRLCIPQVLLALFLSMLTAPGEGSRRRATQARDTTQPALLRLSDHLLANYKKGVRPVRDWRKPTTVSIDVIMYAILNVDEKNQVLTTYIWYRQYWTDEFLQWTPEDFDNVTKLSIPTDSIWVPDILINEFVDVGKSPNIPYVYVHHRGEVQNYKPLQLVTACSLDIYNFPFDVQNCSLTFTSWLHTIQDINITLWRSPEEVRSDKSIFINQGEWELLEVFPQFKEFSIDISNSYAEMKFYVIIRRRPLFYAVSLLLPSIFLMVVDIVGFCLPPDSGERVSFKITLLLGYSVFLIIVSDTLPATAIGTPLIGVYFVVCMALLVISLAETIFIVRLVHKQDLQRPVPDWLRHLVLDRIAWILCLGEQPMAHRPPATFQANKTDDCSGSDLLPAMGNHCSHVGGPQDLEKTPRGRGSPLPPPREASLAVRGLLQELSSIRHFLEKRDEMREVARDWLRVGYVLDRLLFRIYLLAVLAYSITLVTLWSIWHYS

[6] = Agonist activity at ganglion nAChR; format: functional
[7] = target: Acetylcholine receptor; alpha1/beta1/delta/gamma (Homo sapiens) (UniProt P02708+P07510+P11230+Q07001); assay: Agonist activity at alpha1beta1gammadelta nAChR; format: functional
[8] = target: T4, Neuronal acetylcholine receptor; alpha3/beta4 (Homo sapiens, UniProt P30926+P32297); assay: Agonist activity at human alpha3beta4 nAChR expressed in CHO cells assessed as calcium flux by calcium4-based FLIPR assay relative to nicotine; format: functional, cell-based
T4 sequence (P30926 whole entry): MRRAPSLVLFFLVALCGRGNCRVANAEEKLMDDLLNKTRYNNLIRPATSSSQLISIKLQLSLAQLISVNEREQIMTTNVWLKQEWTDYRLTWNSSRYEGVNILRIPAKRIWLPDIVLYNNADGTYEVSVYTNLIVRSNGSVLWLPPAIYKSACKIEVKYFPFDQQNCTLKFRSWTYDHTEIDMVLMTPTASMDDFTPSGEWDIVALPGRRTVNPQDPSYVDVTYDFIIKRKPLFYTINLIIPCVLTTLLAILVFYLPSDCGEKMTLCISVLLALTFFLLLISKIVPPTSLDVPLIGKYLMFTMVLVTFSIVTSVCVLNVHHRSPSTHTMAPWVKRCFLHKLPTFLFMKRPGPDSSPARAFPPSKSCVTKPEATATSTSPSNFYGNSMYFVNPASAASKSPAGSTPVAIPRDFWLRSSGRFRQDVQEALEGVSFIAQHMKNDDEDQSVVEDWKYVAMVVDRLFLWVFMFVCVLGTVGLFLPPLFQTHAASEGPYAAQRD
T4 sequence (P32297 whole entry): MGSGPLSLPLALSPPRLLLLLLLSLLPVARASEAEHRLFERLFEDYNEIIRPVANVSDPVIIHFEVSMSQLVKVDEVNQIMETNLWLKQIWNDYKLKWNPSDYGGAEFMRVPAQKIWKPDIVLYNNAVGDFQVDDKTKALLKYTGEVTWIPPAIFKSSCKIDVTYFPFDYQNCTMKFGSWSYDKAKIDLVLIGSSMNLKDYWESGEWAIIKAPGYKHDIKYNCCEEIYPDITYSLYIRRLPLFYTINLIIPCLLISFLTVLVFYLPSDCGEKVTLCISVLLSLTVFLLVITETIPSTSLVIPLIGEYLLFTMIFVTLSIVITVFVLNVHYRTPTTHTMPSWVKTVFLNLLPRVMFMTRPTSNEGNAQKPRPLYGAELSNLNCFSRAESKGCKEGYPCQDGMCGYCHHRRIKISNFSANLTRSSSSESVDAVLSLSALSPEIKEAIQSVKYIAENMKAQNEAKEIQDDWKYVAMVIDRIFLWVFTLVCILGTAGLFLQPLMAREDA

[9] = target: T4, Neuronal acetylcholine receptor; alpha3/beta4; assay: Agonist activity at human alpha3beta4 nAChR expressed in CHO cells assessed as calcium flux by calcium4-based FLIPR assay; format: functional, cell-based
[10] = target: T5, Neuronal acetylcholine receptor; alpha4/beta2 (Homo sapiens, UniProt P17787+P43681); assay: Agonist activity at alpha4beta2 nAChR in human SH-EP1 cells assessed as calcium flux by calcium4-based FLIPR assay relative to nicotine; format: functional, cell-based
T5 sequence (P17787 whole entry): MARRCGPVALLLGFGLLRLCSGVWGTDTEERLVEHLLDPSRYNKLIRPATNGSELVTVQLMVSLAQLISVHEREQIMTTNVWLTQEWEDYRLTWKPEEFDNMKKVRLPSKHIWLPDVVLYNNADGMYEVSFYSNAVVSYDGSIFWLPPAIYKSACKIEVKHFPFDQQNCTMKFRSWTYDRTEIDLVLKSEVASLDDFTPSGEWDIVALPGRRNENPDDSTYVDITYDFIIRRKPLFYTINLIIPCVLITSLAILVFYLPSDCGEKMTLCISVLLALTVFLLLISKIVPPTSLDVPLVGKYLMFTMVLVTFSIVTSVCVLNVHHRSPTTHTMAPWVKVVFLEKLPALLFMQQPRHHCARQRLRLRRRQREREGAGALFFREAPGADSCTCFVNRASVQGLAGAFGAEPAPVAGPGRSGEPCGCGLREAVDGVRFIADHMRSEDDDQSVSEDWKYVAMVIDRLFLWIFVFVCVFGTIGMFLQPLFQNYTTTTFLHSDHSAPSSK
T5 sequence (P43681 whole entry): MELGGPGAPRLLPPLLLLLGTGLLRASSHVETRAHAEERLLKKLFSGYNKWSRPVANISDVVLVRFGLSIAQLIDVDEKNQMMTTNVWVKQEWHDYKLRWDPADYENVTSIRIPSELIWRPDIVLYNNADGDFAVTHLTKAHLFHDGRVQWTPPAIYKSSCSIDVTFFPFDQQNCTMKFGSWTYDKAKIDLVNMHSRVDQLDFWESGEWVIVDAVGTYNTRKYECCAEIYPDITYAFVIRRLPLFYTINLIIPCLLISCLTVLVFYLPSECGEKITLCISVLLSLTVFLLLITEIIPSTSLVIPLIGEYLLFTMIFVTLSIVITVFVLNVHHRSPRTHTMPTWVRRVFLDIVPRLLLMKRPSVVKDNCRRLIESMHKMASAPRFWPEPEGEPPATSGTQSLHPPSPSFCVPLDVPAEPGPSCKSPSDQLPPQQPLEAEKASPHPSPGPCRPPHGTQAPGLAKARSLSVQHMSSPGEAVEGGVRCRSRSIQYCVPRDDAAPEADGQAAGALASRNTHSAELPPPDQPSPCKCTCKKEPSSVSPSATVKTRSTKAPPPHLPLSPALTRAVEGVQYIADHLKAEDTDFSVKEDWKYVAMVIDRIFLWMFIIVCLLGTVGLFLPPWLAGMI

[11] = target: T5, Neuronal acetylcholine receptor; alpha4/beta2; assay: Agonist activity at alpha4beta2 nAChR in human SH-EP1 cells assessed as calcium flux by calcium4-based FLIPR assay; format: functional, cell-based
[12] = target: Neuronal acetylcholine receptor subunit alpha-7 (Homo sapiens, UniProt P36544); assay: Displacement of [3H]epibatidine from human alpha7 nAChR expressed in CHO cells after 2 hrs by liquid scintillation counting; format: cell-based
Sequence of Neuronal acetylcholine receptor subunit alpha-7 (P36544 whole entry): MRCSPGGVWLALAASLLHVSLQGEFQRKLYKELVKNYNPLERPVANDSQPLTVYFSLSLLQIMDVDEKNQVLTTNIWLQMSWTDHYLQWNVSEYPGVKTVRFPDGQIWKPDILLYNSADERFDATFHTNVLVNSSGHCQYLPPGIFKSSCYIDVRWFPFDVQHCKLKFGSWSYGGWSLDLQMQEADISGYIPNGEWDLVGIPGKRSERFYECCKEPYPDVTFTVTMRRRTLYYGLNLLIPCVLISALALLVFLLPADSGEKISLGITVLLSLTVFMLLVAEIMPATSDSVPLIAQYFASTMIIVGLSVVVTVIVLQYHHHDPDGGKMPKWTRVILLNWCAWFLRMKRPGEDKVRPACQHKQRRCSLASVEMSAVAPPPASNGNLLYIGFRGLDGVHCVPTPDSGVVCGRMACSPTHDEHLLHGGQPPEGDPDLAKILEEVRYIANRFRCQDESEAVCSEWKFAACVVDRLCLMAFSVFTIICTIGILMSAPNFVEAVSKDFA

[13] = target: T4, Neuronal acetylcholine receptor; alpha3/beta4; assay: Displacement of [3H]epibatidine from human alpha3beta4 nAChR expressed in CHO cells after 2 hrs by liquid scintillation counting; format: cell-based
[14] = target: Neuronal acetylcholine receptor; alpha4/beta2 (Rattus norvegicus, UniProt P09483+P12390); assay: Displacement of [3H]epibatidine from alpha4beta2 nAChR in Sprague-Dawley rat cortex after 2 hrs by liquid scintillation counting
Sequence of Neuronal acetylcholine receptor; alpha4/beta2 (Rattus norvegicus, UniProt P09483+P12390) (P09483 whole entry): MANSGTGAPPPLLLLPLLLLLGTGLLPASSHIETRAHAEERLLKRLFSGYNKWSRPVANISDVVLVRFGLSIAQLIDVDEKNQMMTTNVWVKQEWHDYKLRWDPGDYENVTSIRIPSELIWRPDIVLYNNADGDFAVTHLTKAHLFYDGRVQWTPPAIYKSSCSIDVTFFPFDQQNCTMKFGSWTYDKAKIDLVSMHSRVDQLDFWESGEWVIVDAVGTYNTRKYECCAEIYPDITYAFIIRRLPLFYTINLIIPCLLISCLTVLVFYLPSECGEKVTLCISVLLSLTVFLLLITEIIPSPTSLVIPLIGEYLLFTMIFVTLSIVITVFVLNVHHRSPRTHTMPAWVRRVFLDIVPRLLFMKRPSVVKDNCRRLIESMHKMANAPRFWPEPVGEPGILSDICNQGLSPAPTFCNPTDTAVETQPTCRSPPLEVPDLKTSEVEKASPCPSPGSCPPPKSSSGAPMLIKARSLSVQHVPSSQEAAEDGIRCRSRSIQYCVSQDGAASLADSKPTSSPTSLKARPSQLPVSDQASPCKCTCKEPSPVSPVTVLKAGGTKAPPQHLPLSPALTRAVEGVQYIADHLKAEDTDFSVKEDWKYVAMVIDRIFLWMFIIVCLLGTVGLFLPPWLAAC
Sequence of Neuronal acetylcholine receptor; alpha4/beta2 (Rattus norvegicus, UniProt P09483+P12390) (P12390 whole entry): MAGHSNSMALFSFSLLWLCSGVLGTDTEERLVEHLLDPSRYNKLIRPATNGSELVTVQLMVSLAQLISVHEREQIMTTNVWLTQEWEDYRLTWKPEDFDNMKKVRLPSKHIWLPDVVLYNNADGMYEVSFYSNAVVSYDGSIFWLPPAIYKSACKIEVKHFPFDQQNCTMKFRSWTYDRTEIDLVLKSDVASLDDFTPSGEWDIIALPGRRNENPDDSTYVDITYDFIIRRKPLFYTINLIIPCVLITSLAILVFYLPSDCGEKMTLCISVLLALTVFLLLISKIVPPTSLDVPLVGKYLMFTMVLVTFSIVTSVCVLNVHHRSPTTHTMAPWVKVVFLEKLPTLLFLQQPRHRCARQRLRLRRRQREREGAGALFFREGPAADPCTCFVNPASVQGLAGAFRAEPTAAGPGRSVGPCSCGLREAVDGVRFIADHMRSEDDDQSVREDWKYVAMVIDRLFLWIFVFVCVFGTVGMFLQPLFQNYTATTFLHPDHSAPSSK

[15] = target: T5, Neuronal acetylcholine receptor; alpha4/beta2; assay: Displacement of [3H]nicotine from alpha4beta2 nAChR in human SH-EP1 cells after 2 hrs by liquid scintillation assay; format: cell-based
Rattus norvegicus [16] = assay: Procognitive activity in Sprague-Dawley rat assessed as increase in working memory at 1 mg/kg, po administered QD for 3 days 30 mins prior to testing by novel object recognition test (reference value: 51%); format: functional
Rattus norvegicus [17] = assay: Procognitive activity in Sprague-Dawley rat assessed as increase in working memory at 0.3 to 3 mg/kg, po administered QD for 3 days 30 mins prior to testing by novel object recognition test; format: functional, organism-based
[18] = target: T2, 5-hydroxytryptamine receptor 3A (Homo sapiens); assay: Inhibition of 5HT3 receptor at 10 uM
[19] = Inhibition of adrenergic alpha2 receptor at 10 uM
[20] = target: T5, Neuronal acetylcholine receptor; alpha4/beta2; assay: Partial agonist activity at alpha4beta2 nAChR in human SH-EP1 cells assessed as calcium flux by calcium4-based FLIPR assay relative to nicotine; format: functional, cell-based
[21] = target: T5, Neuronal acetylcholine receptor; alpha4/beta2; assay: Partial agonist activity at alpha4beta2 nAChR in human SH-EP1 cells assessed as calcium flux by calcium4-based FLIPR assay; format: functional, cell-based
[22] = target: T5, Neuronal acetylcholine receptor; alpha4/beta2; assay: Binding affinity to human alpha4beta2 nAChR expressed in xenopus oocyte
[23] = target: T5, Neuronal acetylcholine receptor; alpha4/beta2; assay: Binding affinity to alpha4beta2 nAChR; format: protein-complex assay
[24] = target: T5, Neuronal acetylcholine receptor; alpha4/beta2; assay: Apparent antagonist activity at alpha4beta2 nAChR in human SH-EP1 cells assessed as inhibition of nicotine-induced calcium flux by calcium4-based FLIPR assay relative to control; format: functional, cell-based
[25] = target: T5, Neuronal acetylcholine receptor; alpha4/beta2; assay: Apparent antagonist activity at alpha4beta2 nAChR in human SH-EP1 cells assessed as inhibition of nicotine-induced calcium flux by calcium4-based FLIPR assay; format: functional, cell-based
[26] = target: T4, Neuronal acetylcholine receptor; alpha3/beta4; assay: Displacement of [3H]epibatidine from alpha3beta4 nAChR in human SH-SY5Y cells after 2 hrs by liquid scintillation counting; format: cell-based
[27] = target: T5, Neuronal acetylcholine receptor; alpha4/beta2; assay: Displacement of [3H]methylcarbamylcholine from alpha4beta2 nAChR; format: protein-complex assay

Row | Structure (SMILES) | Emax [8] [%] | EC50 [9] [µM] | Emax [10] [%] | EC50 [11] [µM] | Ki [12] [µM] | Ki [13] [µM] | Ki [14] [µM] | Ki [15] [µM] | further results
1 | O=C(c1ccc(Cl)o1)N1CC2CNCC2C1 (centres undefined) [AZD1446] | 10 | 70 | 120 | 4.9 | 6.7 | > 10 | 0.034 | 0.03 | %max (Rattus norvegicus [1]): 74%; Activity (Rattus norvegicus [2]): Active; inhibition (INH) (Cytochrome P450 2D6): Not Active; inhibition at 10 µM (hERG (KCNH2)): < 5%; Ki [3]: 0.7 µM; inhibition [4]: 87%; inhibition [5]: 97%; Activity [6]: inactive; Activity [7]: inactive
2 | O=C(c1ccc(Cl)o1)N1CC2CNCC(C2)C1 | 61 | 15 |  |  | > 10 | 6.4 | 0.007 | 0.005 | %max (Rattus norvegicus [16]): 75%; Activity (Rattus norvegicus [17]): Active; inhibition (INH) (Cytochrome P450 2D6): Not Active; inhibition at 10 µM (hERG (KCNH2)): < 5%; inhibition [18]: 40%; inhibition [19]: 35%; Activity [6]: inactive; Activity [7]: inactive; Emax [20]: 47%; EC50 [21]: 1.4 µM
3 | CC(=O)/C=C1\CN2CCC1CC2 |  |  |  |  |  |  |  |  | Ki [22]: 0.013 µM
4 | c1cncc(N2CC3CNCC(C3)C2)c1 |  |  |  |  |  |  |  |  | Ki [23]: 0.0002 µM
5 | O=C(c1ccc(Oc2ccccc2)cc1)N1CC2CNCC2C1 (centres undefined) | 12 | 25 | 9 | 51 | 13 | 14 | 0.039 | 0.019 | Imax [24]: 94%; IC50 [25]: 7.8 µM
6 | CCOc1cncc(/C=C/CCNC)c1 | 10 | 20 | 57 | 0.17 | 71 |  | 0.006 | 0.012 | Ki [26]: 7 µM
7 | C(=C1/CN2CCC1CC2)/c1cccnc1 |  |  |  |  |  |  |  |  | Ki [27]: 0.002 µM
